Data: patent US20240368121A1, “ESTROGEN RECEPTOR DEGRADERS, PHARMACEUTICAL COMPOSITIONS THEREOF, AND THEIR THERAPEUTIC APPLICATIONS” (BioTheryX, Inc., priority 2021, published 2024)

Tests used:
[1] = system: MCF7 cells; experiment: Cell viability assay ([…]-GLO, 6-day treatment); assay type: cell-based; conditions: Homo sapiens, MCF7, 144 h; MCF-7 cells, 6 days, CTG; read-out: Inhibition of Cancerous Cells IC50 MCF-7
Method: A compound provided herein was evaluated for its anticancer activity in MCF7 and T47D cells. MCF7 and T47D cells were cultured at 37° C. in a humidified 5% C02 environment in MEM or RPMI, supplemented with 10% FBS with insulin, respectively. The cells were plated in 384-well microplates at a density of 1,000 cells per well in their respective maintenance media. The cells were treated with the compound by a 10-point dose response curve for 6 days, during which, the medium and compound were refreshed once. After the 6-day treatment, the cell viability was assessed using […]-GLO (CTG) reagent. Luminescence was measured with a microplate reader.

[2] = target: T1, ERα (Homo sapiens, UniProt P03372); experiment: Protein degradation assay: ERα in MCF-7 cells via western blot; assay type: cell-based; conditions: 6 h; for ERα Protein Degradation 1 nM: 1 nM compound; for ERα Protein Degradation 10 nM: 10 nM compound; for ERα Protein Degradation 100 nM: 100 nM compound
T1 construct: degrading an ERα in MCF-7 cells via a western blot; endogenous in cells; host or cells: MCF-7
T1 sequence (P03372 1-595): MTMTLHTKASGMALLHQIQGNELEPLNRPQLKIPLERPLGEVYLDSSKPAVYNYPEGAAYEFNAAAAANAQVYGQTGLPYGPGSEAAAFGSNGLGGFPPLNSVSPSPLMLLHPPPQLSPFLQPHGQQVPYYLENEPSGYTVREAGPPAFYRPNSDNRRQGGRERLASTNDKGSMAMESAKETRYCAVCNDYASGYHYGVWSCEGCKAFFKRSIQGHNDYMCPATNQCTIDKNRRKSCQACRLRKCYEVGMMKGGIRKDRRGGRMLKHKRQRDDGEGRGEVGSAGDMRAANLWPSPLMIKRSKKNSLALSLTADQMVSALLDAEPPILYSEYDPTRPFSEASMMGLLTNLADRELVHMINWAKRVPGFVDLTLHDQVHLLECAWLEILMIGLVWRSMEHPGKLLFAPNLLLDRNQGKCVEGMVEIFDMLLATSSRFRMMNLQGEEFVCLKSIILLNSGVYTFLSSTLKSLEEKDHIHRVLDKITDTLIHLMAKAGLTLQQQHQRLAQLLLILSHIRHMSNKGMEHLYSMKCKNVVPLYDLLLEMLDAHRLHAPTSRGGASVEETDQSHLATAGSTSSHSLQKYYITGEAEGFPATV
Method: A compound provided herein was assessed for its activity in degrading an ERα in MCF-7 cells via a western blot. The MCF7 cells were cultured at 37° C. in a humidified 5% C02 environment in MEM supplemented with 10% FBS with insulin. The cells were seeded in 12-well plates at a density of 300,000 cells per well in maintenance media. Cells were treated with the compound at predetermined concentrations (e.g., 1 nM, 10 nM, 100 nM, and 1 μM) for 6 h. The cells were then washed in PBS and the whole cells were lysed in a cell lysis buffer and incubated for 15 minutes on ice. Cell debris was removed by high-speed centrifugation and the cleared whole cell lysates were prepared for further analysis by a western blot. The whole cell protein extracts were separated on SDS-polyacrylamide gels, transferred to nitrocellulose membranes, and probed with primary antibodies, including anti-ERα antibody and GAPDH antibody for loading control. The membranes were subsequently washed and probed with secondary antibodies for chemiluminescence, followed by imaging on a BIORAD CHEMIDOC Imaging System. The results are summarized in Table 2, where “A” represents a percentage degradation value of no less than 50%; “B” represents a percentage degradation value of less than 50% and no less than 25%; “C” represents a percentage degradation value of less than 25% and no less than 10%; and “D” represents a percentage degradation value of less than 10%.

Row | Compound | IC50 [1] | ERα Protein Degradation 1 nM [2] | ERα Protein Degradation 10 nM [2] | ERα Protein Degradation 100 nM [2]
1 | O=C1CCC(N2Cc3c(csc3COc3ccc(CNCCCCCOc4ccc([C@@H]5c6ccc(O)cc6CC[C@@H]5c5ccccc5)cc4)cc3)C2=O)C(=O)N1 (stereo in doubt) [Compound A17, 3-(1-((4-(((5-(4-((1R,2S)-6-Hydroxy-2-phenyl-1,2,3,4-tetrahydronaphthalen-1-yl)phenoxy)pentyl)amino)methyl)phenoxy)methyl)-4-oxo-4H-thieno[3,4-c]pyrrol-5(6H)-yl)piperidine-2,6-dione] | 1160 nM | B (a percentage degradation value of less than 50% and no less than 25%) | C (a percentage degradation value of less than 25% and no less than 10%) | D (a percentage degradation value of less than 10%)
2 | O=C1CCC(N2Cc3c(csc3COc3ccc(CNCCCCCOc4ccc([C@@H]5c6ccc(O)cc6CC[C@@H]5c5ccccc5)cc4)cc3)C2=O)C(=O)N1 (stereo partly drawn) [Compound A9, 3-(1-((4-(((5-(4-((1R,2S)-6-hydroxy-2-phenyl-1,2,3,4-tetrahydronaphthalen-1-yl)phenoxy)pentyl)amino)methyl)phenoxy)methyl)-4-oxo-4H-thieno[3,4-c]pyrrol-5(6H)-yl)piperidine-2,6-dione] | 1.4 nM | B (a percentage degradation value of less than 50% and no less than 25%) | B (a percentage degradation value of less than 50% and no less than 25%) | B (a percentage degradation value of less than 50% and no less than 25%)
3 | O=C1CCC(N2Cc3c(cc(F)cc3C3CCN(CCCCOc4ccc([C@H]5c6ccc(O)cc6CC[C@H]5c5ccccc5)cc4)CC3)C2=O)C(=O)N1 (stereo partly drawn) [Compound A12, 3-(6-Fluoro-4-(1-(4-(4-((1S,2R)-6-hydroxy-2-phenyl-1,2,3,4-tetrahydro-naphthalen-1-yl)phenoxy)butyl)piperidin-4-yl)-1-oxoisoindolin-2-yl)piperidine-2,6-dione] |  | C (a percentage degradation value of less than 25% and no less than 10%) | C (a percentage degradation value of less than 25% and no less than 10%) | C (a percentage degradation value of less than 25% and no less than 10%)
4 | O=C1CCC(N2Cc3cc(C4CCN(CCCCOc5ccc([C@H]6c7ccc(O)cc7CC[C@H]6c6ccccc6)cc5)CC4)c(F)cc3C2=O)C(=O)N1 (stereo partly drawn) [Compound A13, 3-(6-Fluoro-5-(1-(4-(4-((1S,2R)-6-hydroxy-2-phenyl-1,2,3,4-tetrahydro-naphthalen-1-yl)phenoxy)butyl)piperidin-4-yl)-1-oxoisoindolin-2-yl)piperidine-2,6-dione] |  | C (a percentage degradation value of less than 25% and no less than 10%) | B (a percentage degradation value of less than 50% and no less than 25%) | C (a percentage degradation value of less than 25% and no less than 10%)
5 | O=C1CCC(N2Cc3c(csc3C3CCN(CCCCCCOc4ccc([C@@H]5c6ccc(O)cc6CC[C@@H]5c5ccccc5)cc4)CC3)C2=O)C(=O)N1 (stereo partly drawn) [Compound A18, 3-(1-(1-(6-(4-((1R,2S)-6-Hydroxy-2-phenyl-1,2,3,4-tetrahydronaphthalen-1-yl)-phenoxy)hexyl)piperidin-4-yl)-4-oxo-4H-thieno[3,4-c]pyrrol-5(6H)-yl)piperidine-2,6-dione] | 0.28 nM |  |  | 
6 | Cn1nc([C@H]2CCC(=O)NC2=O)c2ccc(OCC(=O)N3CCN(CCCCOc4ccc([C@@H]5c6ccc(O)cc6CC[C@@H]5c5ccccc5)cc4)CC3)cc21 [Compound B26, (R)-3-(6-(2-(4-(4-(4-((1R,2S)-6-Hydroxy-2-phenyl-1,2,3,4-tetrahydronaphthalen-1-yl)phenoxy)butyl)piperazin-1-yl)-2-oxoethoxy)-1-methyl-1H-indazol-3-yl)piperidine-2,6-dione] | 0.13 nM |  |  | 
7 | CC1(Cc2ccc(OCCCCN3CCN(C(=O)COc4cccc5c4CN(C4CCC(=O)NC4=O)C5=O)CC3)cc2)C(c2ccc(O)cc2)=Nc2ccc(O)cc21 (stereo not shown) [Compound D1, 3-(4-(2-(4-(4-(4-((5-hydroxy-2-(4-hydroxyphenyl)-3-methyl-3H-indol-3-yl)-methyl)phenoxy)butyl)piperazin-1-yl)-2-oxoethoxy)-1-oxoisoindolin-2-yl)piperidine-2,6-dione] |  | D (a percentage degradation value of less than 10%) | D (a percentage degradation value of less than 10%) | D (a percentage degradation value of less than 10%)
8 | CC1(Cc2ccc(OCCCCN3CCN(c4ccc5c(c4)CN(C4CCC(=O)NC4=O)C5=O)CC3)cc2)C(c2ccc(O)cc2)=Nc2ccc(O)cc21 (stereo not shown) [Compound D2, 3-(5-(4-(4-(4-((5-Hydroxy-2-(4-hydroxyphenyl)-3-methyl-3H-indol-3-yl)-methyl)phenoxy)butyl)piperazin-1-yl)-1-oxoisoindolin-2-yl)piperidine-2,6-dione] |  | D (a percentage degradation value of less than 10%) | D (a percentage degradation value of less than 10%) | D (a percentage degradation value of less than 10%)
9 | CC1(Cc2ccc(OCCCCN3CCN(C(=O)COc4ccc(N5CCC(=O)NC5=O)cc4)CC3)cc2)C(c2ccc(O)cc2)=Nc2ccc(O)cc21 (stereo not shown) [Compound D9, 1-(4-(2-(4-(4-(4-((5-Hydroxy-2-(4-hydroxyphenyl)-3-methyl-3H-indol-3-yl)-methyl)phenoxy)butyl)piperazin-1-yl)-2-oxoethoxy)phenyl)dihydropyrimidine-2,4(1H,3H)-dione] |  | D (a percentage degradation value of less than 10%) | D (a percentage degradation value of less than 10%) | D (a percentage degradation value of less than 10%)
10 | Cc1c(-c2ccc(O)cc2)n(Cc2ccc(N3CCC(CN4CCN(C(=O)COc5ccc6c(C7CCC(=O)NC7=O)nn(C)c6c5)CC4)CC3)cc2)c2ccc(O)cc12 (stereo not shown) [Compound E15, 3-(6-(2-(4-((1-(4-((5-hydroxy-2-(4-hydroxyphenyl)-3-methyl-1H-indol-1-yl)-methyl)phenyl)piperidin-4-yl)methyl)piperazin-1-yl)-2-oxoethoxy)-1-methyl-1H-indazol-3-yl)-piperidine-2,6-dione] | 0.27 nM |  |  | 
11 | Cc1c(-c2ccc(O)cc2)n(Cc2ccc(N3CCC(CN4CCN(c5ccc6c(C7CCC(=O)NC7=O)nn(C)c6c5)CC4)CC3)cc2)c2ccc(O)cc12 (stereo not shown) [Compound E17, 3-(6-(4-((1-(4-((5-Hydroxy-2-(4-hydroxyphenyl)-3-methyl-1H-indol-1-yl)-methyl)phenyl)piperidin-4-yl)methyl)piperazin-1-yl)-1-methyl-1H-indazol-3-yl)piperidine-2,6-dione] | 0.8 nM |  |  | 
12 | Cc1c(-c2ccc(O)cc2)n(Cc2ccc(N3CCC(CCN4CCN(c5ccc6c(C7CCC(=O)NC7=O)nn(C)c6c5)CC4)CC3)cc2)c2ccc(O)cc12 (stereo not shown) [Compound E18, 3-(6-(4-(2-(1-(4-((5-Hydroxy-2-(4-hydroxyphenyl)-3-methyl-1H-indol-1-yl)-methyl)phenyl)piperidin-4-yl)ethyl)piperazin-1-yl)-1-methyl-1H-indazol-3-yl)piperidine-2,6-dione] | 0.36 nM |  |  | 
